Consider 14 compounds from ChEMBL document CHEMBL2040546, “Identification of influenza endonuclease inhibitors using a novel fluorescence polarization assay” (ACS Chem Biol, 2012).

This experiment can be described thus: Cytotoxicity. Type of experiment: functional, Canis lupus familiaris, MDCK.

As usually defined, the CC50 is the concentration at which the toxic effect on the cells reaches its halfway point. A low value points to greater toxicity to the cells.

Bounds are passed on as bounds.

The compound `CC(NC(=O)c1nc(-c2cnccn2)[nH]c(=O)c1O)c1ccccc1` (centres undefined) yielded a CC50 of more than 60 µM.
Still for that read-out and setting: as for `O=C(O)c1nc(-c2cnccn2)nc(O)c1O`, the figure is more than 60 µM.
In the case of `Cc1ccc([C@@H](C)NC(=O)c2nc(-c3cnccn3)[nH]c(=O)c2O)cc1`, the CC50 is more than 60 µM.
Compound `C[C@H](NC(=O)c1nc(-c2cnccn2)[nH]c(=O)c1O)c1ccccc1` showed a CC50 of more than 60 µM.
The same measure, in the same setting: as for `O=C(N[C@H](CO)c1ccccc1)c1nc(-c2cnccn2)[nH]c(=O)c1O`, the figure is more than 60 µM; as for `Cc1ccc(CNC(=O)c2nc(-c3cnccn3)[nH]c(=O)c2O)cc1`, more than 60 µM.
Consider `O=C(NCC1CC1)c1nc(-c2cnccn2)[nH]c(=O)c1O`, for which the CC50 was more than 60 µM.
Same read-out and setting: as for `C[C@@H](NC(=O)c1nc(-c2cnccn2)[nH]c(=O)c1O)C1CCCCC1`, the figure is 7.1 µM; as for `O=C(NCc1ccc(F)cc1)c1nc(-c2cnccn2)[nH]c(=O)c1O`, more than 60 µM; as for `COc1ccc(CNC(=O)c2nc(-c3cnccn3)[nH]c(=O)c2O)cc1`, more than 60 µM.
With `O=C(NC1CCCc2ccccc21)c1nc(-c2cnccn2)[nH]c(=O)c1O` (centres undefined), the CC50 is 10.2 µM.
The compound `O=C(NCCc1ccccc1)c1nc(-c2cnccn2)[nH]c(=O)c1O` gave a CC50 (Influenza A virus, MDCK) of more than 60 µM.
In turn, `O=C(NCc1ccccc1)c1nc(-c2cnccn2)[nH]c(=O)c1O` returned a CC50 of more than 60 µM.
The same measure, in the same setting: to `C[C@@H](NC(=O)c1nc(-c2cnccn2)[nH]c(=O)c1O)c1ccccc1` belongs more than 60 µM.
